Test results reported in US5834487A, “Inhibition of 26S and 20S proteasome by indanones” (CV Therapeutics, priority 1996, dated 1998).
≈ marks a conversion by molar mass, not a printed value.

Target: T1, 20S catalytic subunit of the proteasome (multicatalytic proteinase complex) (Bos taurus, UniProt Q32KL2)
T1 construct: was purified to homogeneity from bovine brain according to published methods; from tissue; host or cells: bovine brain
Experiment: 20S proteasome chymotryptic activity, fluorogenic peptide cleavage
Type: biochemical, bovine
Conditions: 50 μM succinyl-leu-leu-val-tyr-7-amino-4-methyl coumarin, 15 minutes at 37° C, pH7.5
Protocol: Compounds of this invention prepared according to the method of Example 1 were tested as follows. The 20S catalytic subunit of the proteasome (also known as the multicatalytic proteinase complex) was purified to homogeneity from bovine brain according to published methods (Wilk S. and Orlowski, M, 40 842 J. Neurochem (1983)). The chymotryptic activity of the complex is measured by the increase in fluorescence following cleavage of the substrate peptide succinyl-leucine-leucine-valine-tyrosine-7-amino-4-methyl coumarin. The standard in vitro assay consists of 2 μg 20S proteasome, 0.1-100 μg/ml proteasome inhibitor in 200 μl 50 mM HEPES, containing 0.1% sodium dodecyl sulphate, pH7.5. The proteolytic reaction is initiated by the addition of 50 μM fluorogenic peptide substrate and allowed to progress for 15 minutes at 37° C. The reaction is terminated by the addition of 100 μl of 100 mM acetate buffer, pH4.0. The rate of proteolysis is directly proportional to the amount of liberated aminomethylcoumarin which is measured by fluorescent spectroscopy (EX 370 nm, EM 430 nm).

COc1ccc2c(c1)C(CC(=O)NC(CC(C)C)C(=O)NCCC(C)C)CC2=O (mixture of isomers) [Compound 200]
IC50: > 10 µg/mL

COc1ccc2c(c1)C(CC(=O)Nc1ccc(I)cc1)CC2=O (racemic) [Compound 152]
IC50: > 10 µg/mL

COc1ccc2c(c1)C(CC(=O)Nc1c(C)cccc1[N+](=O)[O-])CC2=O (racemic) [Compound 153]
IC50: > 10 µg/mL

COc1ccc2c(c1)C(CC(=O)Nc1nc(C)cc(Cl)n1)CC2=O (racemic) [Compound 155]
IC50: > 10 µg/mL

COc1ccc2c(c1)C(CC(=O)Nc1ccc(Cl)cn1)CC2=O (racemic) [Compound 156]
IC50: > 10 µg/mL

COc1ccc2c(c1)C(CC(=O)Nc1ccc(Cl)c(Cl)c1)CC2=O (racemic) [Compound 157]
IC50: > 10 µg/mL

COc1ccc2c(c1)C(CC(=O)Nc1ccnc(S)n1)CC2=O (racemic) [Compound 158]
IC50: > 10 µg/mL

COc1ccc2c(c1)C(CC(=O)N1CCc3ccccc31)CC2=O (racemic) [Compound 160]
IC50: > 10 µg/mL

COc1ccc2c(c1)C(CC(=O)NCCCc1ccccc1)CC2=O (racemic) [Compound 161]
IC50: > 50 µg/mL

COc1ccc(NC(=O)CC2CC(=O)c3ccc(OC)cc32)cc1 (racemic) [Compound 162]
IC50: > 50 µg/mL

COc1ccc2c(c1)C(CC(=O)NCc1ccc3c(c1)OCO3)CC2=O (racemic) [Compound 163]
IC50: > 50 µg/mL

COc1ccc2c(c1)C(CC(=O)N(CCO)Cc1ccccc1)CC2=O (racemic) [Compound 166]
IC50: > 50 µg/mL

COc1ccc2c(c1)C(CC(=O)N(C)C)CC2=O (racemic) [Compound 167]
IC50: > 50 µg/mL

COc1ccc2c(c1)C(CC(=O)Nc1ccccc1)CC2=O (racemic) [Compound 168]
IC50: > 50 µg/mL

COCCN(CCOC)C(=O)CC1CC(=O)c2ccc(OC)cc21 (racemic) [Compound 169]
IC50: > 50 µg/mL

COc1ccc2c(c1)C(CC(=O)N[C@@H](CC(C)C)C(=O)N[C@H](CC(C)C)C(=O)NCC(N)=O)CC2=O (single isomer, unassigned) [Compound 50]
IC50: 0.5 µg/mL (≈ 0.995 µM)

COc1ccc2c(c1)C(CC(=O)N[C@@H](CC(C)C)C(=O)N[C@H](CC(C)C)C(=O)NCC(N)=O)CC2=O (single isomer, unassigned) [Compound 51]
IC50: 0.5 µg/mL (≈ 0.995 µM)

COc1ccc2c(c1)C(CC(=O)NCc1ccccc1)CC2=O (stereo not shown) [Compound 38]
IC50: > 10 µg/mL

COc1ccc2c(c1)C(CC(=O)N(Cc1ccccc1)Cc1ccccc1)CC2=O (stereo not shown) [Compound 39]
IC50: > 10 µg/mL

COc1ccc2c(c1)C(CC(=O)NCC(=O)NCC(=O)NCC(N)=O)CC2=O (stereo not shown) [Compound 40]
IC50: > 10 µg/mL

COc1ccc2c(c1)C(CC(=O)N(C(C)C)C(C)C)CC2=O (stereo not shown) [Compound 62]
IC50: > 10 µg/mL

COc1ccc2c(c1)C(CC(=O)N1CCOCC1)CC2=O (stereo not shown) [Compound 63]
IC50: > 10 µg/mL

COc1ccc2c(c1)C(CC(=O)N1CCCC1)CC2=O (stereo not shown) [Compound 64]
IC50: > 10 µg/mL

COc1ccc2c(c1)C(CC(=O)NCCc1ccccc1)CC2=O (stereo not shown) [Compound 65]
IC50: > 10 µg/mL

COc1ccc2c(c1)C(CC(=O)NCCCc1ccccc1)CC2=O (stereo not shown) [Compound 66]
IC50: > 10 µg/mL

COc1ccc2c(c1)C(CC(=O)N1CCCCC1)CC2=O (stereo not shown) [Compound 67]
IC50: > 10 µg/mL

CCN(CC)C(=O)CC1CC(=O)c2ccc(OC)cc21 (stereo not shown) [Compound 68]
IC50: > 10 µg/mL

COc1ccc2c(c1)C(CC(=O)NC1CCC1)CC2=O (stereo not shown) [Compound 69]
IC50: > 10 µg/mL

CCCCCCCNC(=O)CC1CC(=O)c2ccc(OC)cc21 (stereo not shown) [Compound 70]
IC50: > 10 µg/mL

COCCCNC(=O)CC1CC(=O)c2ccc(OC)cc21 (stereo not shown) [Compound 71]
IC50: > 10 µg/mL

COc1ccc2c(c1)C(CC(=O)NCCc1ccc(OC)c(OC)c1)CC2=O (stereo not shown) [Compound 72]
IC50: > 10 µg/mL

COc1ccc2c(c1)C(CC(=O)N(C)Cc1ccccc1)CC2=O (stereo not shown) [Compound 73]
IC50: > 10 µg/mL

COc1ccc2c(c1)C(CC(=O)NC1CCCC1)CC2=O (stereo not shown) [Compound 74]
IC50: > 10 µg/mL

COc1ccc2c(c1)C(CC(=O)N1C(C)CCCC1C)CC2=O (stereo not shown) [Compound 75]
IC50: > 10 µg/mL

COc1ccc2c(c1)C(CC(=O)N(CCO)Cc1ccccc1)CC2=O (stereo not shown) [Compound 76]
IC50: > 10 µg/mL

COc1ccc2c(c1)C(CC(=O)N1CCc3ccccc31)CC2=O (stereo not shown) [Compound 77]
IC50: > 10 µg/mL

COc1ccc2c(c1)C(CC(=O)N(C)C)CC2=O (stereo not shown) [Compound 78]
IC50: > 10 µg/mL

COCCN(CCOC)C(=O)CC1CC(=O)c2ccc(OC)cc21 (stereo not shown) [Compound 79]
IC50: > 10 µg/mL

COc1ccc2c(c1)C(CC(=O)NCc1ccc3c(c1)OCO3)CC2=O (stereo not shown) [Compound 80]
IC50: > 10 µg/mL

COc1ccc2c(c1)C(CC(=O)N1CCC(O)CC1)CC2=O (stereo not shown) [Compound 81]
IC50: > 10 µg/mL

COc1ccc2c(c1)C(CC(=O)Nc1cccc(I)c1)CC2=O (stereo not shown) [Compound 82]
IC50: > 10 µg/mL

COc1ccc2c(c1)C(CC(=O)NC1CCc3ccccc31)CC2=O (stereo not shown) [Compound 83]
IC50: > 10 µg/mL

COc1ccc2c(c1)C(CC(=O)NCCO)CC2=O (stereo not shown) [Compound 84]
IC50: > 10 µg/mL

COc1ccc(CNC(=O)CC2CC(=O)c3ccc(OC)cc32)cc1 (stereo not shown) [Compound 85]
IC50: > 10 µg/mL

CCCC[C@@H](NC(=O)[C@H](CC(C)C)NC(=O)CC1CC(=O)c2ccc(OC)cc21)C(=O)NCC(N)=O (stereo partly shown) [Compound 86]
IC50: > 10 µg/mL

CCC[C@@H](NC(=O)[C@H](CC(C)C)NC(=O)CC1CC(=O)c2ccc(OC)cc21)C(=O)NCC(N)=O (stereo partly shown) [Compound 87]
IC50: > 10 µg/mL

COc1ccc2c(c1)C(CC(=O)N[C@@H](CC(C)C)C(=O)N[C@H](Cc1ccccc1)C(=O)NCC(N)=O)CC2=O (stereo partly shown) [Compound 88]
IC50: > 10 µg/mL

COc1ccc2c(c1)C(CC(=O)N[C@@H](CC(C)C)C(=O)N[C@H](CC1CCCCC1)C(=O)NCC(N)=O)CC2=O (stereo partly shown) [Compound 89]
IC50: > 10 µg/mL

COc1ccc2c(c1)C(CC(=O)N[C@@H](CC(C)C)C(=O)N[C@@H](C(=O)NCC(N)=O)C(C)C)CC2=O (stereo partly shown) [Compound 90]
IC50: > 10 µg/mL

COc1ccc2c(c1)C(CC(=O)N[C@@H](CC(C)C)C(=O)N[C@@H](C(=O)NCC(N)=O)c1ccccc1)CC2=O (stereo partly shown) [Compound 91]
IC50: 10 µg/mL (≈ 19.1 µM)

COc1ccc2c(c1)C(CC(=O)NCc1ccncc1)CC2=O (stereo not shown) [Compound 104]
IC50: > 10 µg/mL

COc1ccc2c(c1)C(CC(=O)N1CCSCC1)CC2=O (stereo not shown) [Compound 106]
IC50: > 10 µg/mL

COc1ccc2c(c1)C(CC(=O)NCc1ccccc1OC)CC2=O (stereo not shown) [Compound 107]
IC50: > 10 µg/mL

COc1ccc2c(c1)C(CC(=O)N1CCC(C)CC1)CC2=O (stereo not shown) [Compound 108]
IC50: > 10 µg/mL

COc1ccc2c(c1)C(CC(=O)N1CCC(O)C1)CC2=O (stereo not shown) [Compound 109]
IC50: > 10 µg/mL

COc1ccc2c(c1)C(CC(=O)NC1CCN(Cc3ccccc3)CC1)CC2=O (stereo not shown) [Compound 110]
IC50: > 10 µg/mL

COc1ccc2c(c1)C(CC(=O)NCC(O)CO)CC2=O (stereo not shown) [Compound 111]
IC50: > 10 µg/mL

COc1ccc2c(c1)C(CC(=O)NCCN1CCCC1)CC2=O (stereo not shown) [Compound 112]
IC50: > 10 µg/mL

COc1ccc2c(c1)C(CC(=O)NC(C)(C)CO)CC2=O (stereo not shown) [Compound 113]
IC50: > 10 µg/mL

COc1ccc2c(c1)C(CC(=O)NCc1ccccn1)CC2=O (stereo not shown) [Compound 114]
IC50: > 10 µg/mL

COc1ccc2c(c1)C(CC(=O)N(C)CCO)CC2=O (stereo not shown) [Compound 115]
IC50: > 10 µg/mL

COc1ccc2c(c1)C(CC(=O)N(CCC#N)Cc1cccnc1)CC2=O (stereo not shown) [Compound 116]
IC50: > 10 µg/mL

COCCNC(=O)CC1CC(=O)c2ccc(OC)cc21 (stereo not shown) [Compound 117]
IC50: > 10 µg/mL

COc1ccc2c(c1)C(CC(=O)NC(CO)C(O)c1ccccc1)CC2=O (stereo not shown) [Compound 118]
IC50: > 10 µg/mL

COc1ccc2c(c1)C(CC(=O)N1CCCC1CO)CC2=O (stereo not shown) [Compound 119]
IC50: > 10 µg/mL

COc1ccc2c(c1)C(CC(=O)NCCCc1ccccc1)CC2=O (stereo not shown) [Compound 120]
IC50: > 10 µg/mL

COc1ccc(NC(=O)CC2CC(=O)c3ccc(OC)cc32)cc1 (stereo not shown) [Compound 121]
IC50: > 10 µg/mL

COc1ccc2c(c1)C(CC(=O)Nc1ccccc1)CC2=O (stereo not shown) [Compound 122]
IC50: > 10 µg/mL

COc1ccc2c(c1)C(CC(=O)N(c1ccc(O)cc1)c1ccc3ccccc3c1)CC2=O (stereo not shown) [Compound 144]
IC50: > 10 µg/mL

COc1ccc2c(c1)C(CC(=O)Nc1nc(O)c(C)c(O)n1)CC2=O (stereo not shown) [Compound 145]
IC50: > 10 µg/mL

COc1ccc(CN(C(=O)CC2CC(=O)c3ccc(OC)cc32)c2ccccn2)cc1 (stereo not shown) [Compound 149]
IC50: > 10 µg/mL

COc1ccc2c(c1)C(CC(=O)NCCCCCCN)CC2=O (stereo not shown) [Compound 150]
IC50: > 10 µg/mL

COc1ccc2c(c1)C(CC(=O)N1CCC(O)(c3ccccc3)CC1)CC2=O (stereo not shown) [Compound 151]
IC50: > 10 µg/mL
